Columns and labels:
Type in all cases: toxicity, cell-based
HEK-293T = assay: Incucyte cell viability with HEK293T; settings: human, 10 µM, compound concentration 10 uM
Fibroblast = assay: Incucyte cell viability with human fibroblast; settings: 10 µM, compound concentration 10 uM
U2OS = assay: Incucyte cell viability with U2OS; settings: human, 10 µM, compound concentration 10 uM
Further: unitless GR value; below 1 slowed growth and below 0 cell loss.

SMILES: COc1cc(-c2cncc(-c3ccc(N4CCN(C(C)C)CC4)cc3)c2C)cc(F)c1C(N)=O
- Growth Rate (HEK-293T; 0 h, replicate number 1): -0.67
- Growth Rate (Fibroblast; 0 h, replicate number 2): -0.84

SMILES: Cc1ncsc1-c1ccc(CNC(=O)[C@@H]2C[C@@H](O)CN2C(=O)[C@@H](NC(=O)C2(F)CC2)C(C)(C)C)c(OCCOc2ccc(CN3CCN(c4cc(-c5ccccc5O)nnc4N)CC3)cc2)c1
- Growth Rate (HEK-293T; 0 h, replicate number 1): -1
- Growth Rate (Fibroblast; 0 h, replicate number 2): -1

SMILES: COc1cc(C(=O)NCCOCCOCCOCCC(=O)Nc2cccc3c2C(=O)N(C2CCC(=O)NC2=O)C3=O)ccc1Nc1ncc(C(F)(F)F)c(Oc2cccc3c2C(=O)CC3)n1 (stereo unspecified)
- Growth Rate (HEK-293T; 0 h, replicate number 1): -0.87
- Growth Rate (HEK-293T; 0 h, replicate number 2): -0.99
- Growth Rate (HEK-293T; 6 h, replicate number 1): 0.89
- Growth Rate (HEK-293T; 12 h, replicate number 1): 0.57
- Growth Rate (HEK-293T; 18 h, replicate number 1): 0.71
- Growth Rate (HEK-293T; 18 h, replicate number 2): 0.69
- Growth Rate (HEK-293T; 24 h, replicate number 1): 0.61
- Growth Rate (HEK-293T; 24 h, replicate number 2): 0.74
- Growth Rate (Fibroblast; 0 h, replicate number 2): 0.45
- Growth Rate (Fibroblast; 12 h, replicate number 2): 0.65

SMILES: CNc1ncc2cc(-c3ccc(-c4ncccc4F)cc3Cl)c(=O)n(C[C@H]3OC[C@H](N)CO3)c2n1
- Growth Rate (HEK-293T; 0 h, replicate number 1): -0.97
- Growth Rate (Fibroblast; 6 h, replicate number 1): 0.02
- Growth Rate (Fibroblast; 6 h, replicate number 2): -0.26
- Growth Rate (Fibroblast; 12 h, replicate number 1): 0.37
- Growth Rate (Fibroblast; 12 h, replicate number 2): -0.06
- Growth Rate (Fibroblast; 18 h, replicate number 1): 0.78
- Growth Rate (Fibroblast; 18 h, replicate number 2): 0.35
- Growth Rate (Fibroblast; 24 h, replicate number 1): 0.8
- Growth Rate (Fibroblast; 24 h, replicate number 2): 0.66

SMILES: N=C(N)NCCC[C@H](NC(=O)CC1(CC(=O)N2CCN(C(c3ccccc3)c3ccccc3)CC2)CCCC1)C(=O)NCc1ccccc1.O=C(O)C(F)(F)F.O=C(O)C(F)(F)F
- Growth Rate (HEK-293T; 0 h, replicate number 1): 0.71
- Growth Rate (HEK-293T; 6 h, replicate number 1): 0.7
- Growth Rate (HEK-293T; 6 h, replicate number 2): 0.95
- Growth Rate (HEK-293T; 12 h, replicate number 1): 0.89
- Growth Rate (Fibroblast; 0 h, replicate number 2): -0.98
- Growth Rate (Fibroblast; 6 h, replicate number 1): 0.88
- Growth Rate (Fibroblast; 12 h, replicate number 1): 0.74
- Growth Rate (Fibroblast; 18 h, replicate number 1): 0.47
- Growth Rate (Fibroblast; 18 h, replicate number 2): 0.92
- Growth Rate (Fibroblast; 24 h, replicate number 1): 0.8
- Growth Rate (Fibroblast; 24 h, replicate number 2): 0.64

SMILES: N=C(N)Nc1cc(C2CCNCC2)cc(C(F)(F)F)c1.O=C(O)C(F)(F)F.O=C(O)C(F)(F)F
- Growth Rate (HEK-293T; 0 h, replicate number 1): 0.85
- Growth Rate (HEK-293T; 0 h, replicate number 2): -0.14
- Growth Rate (HEK-293T; 6 h, replicate number 1): 0.69
- Growth Rate (HEK-293T; 12 h, replicate number 1): 0.91
- Growth Rate (HEK-293T; 18 h, replicate number 1): 0.98
- Growth Rate (HEK-293T; 24 h, replicate number 1): 0.96
- Growth Rate (Fibroblast; 0 h, replicate number 2): -1
- Growth Rate (Fibroblast; 24 h, replicate number 1): 0.99

SMILES: COc1cc2nc([C@@H]3CCCS(=O)(=O)C3)n(C)c2cc1NC(=O)c1cccc(C(C)(F)F)n1
- Growth Rate (HEK-293T; 0 h, replicate number 1): -0.79
- Growth Rate (HEK-293T; 0 h, replicate number 2): -0.88
- Growth Rate (Fibroblast; 0 h, replicate number 2): -0.81

SMILES: C[C@H](CCC(=O)O)[C@H]1CC[C@H]2[C@@H]3CC[C@@H]4C[C@H](O)CC[C@]4(C)[C@H]3C[C@H](O)[C@]12C [DEOXYCHOLIC ACID]
- Growth Rate (Fibroblast; 0 h, replicate number 1): 0.67
- Growth Rate (Fibroblast; 6 h, replicate number 1): 0.32
- Growth Rate (Fibroblast; 6 h, replicate number 2): 0.72
- Growth Rate (Fibroblast; 12 h, replicate number 2): 0.78
- Growth Rate (Fibroblast; 18 h, replicate number 1): 0.97
- Growth Rate (Fibroblast; 18 h, replicate number 2): 0.69
- Growth Rate (Fibroblast; 24 h, replicate number 2): 0.9
- Growth Rate (U2OS; 0 h, replicate number 1): 0.46
- Growth Rate (U2OS; 0 h, replicate number 2): 0.84
- Growth Rate (U2OS; 6 h, replicate number 1): 0.86
- Growth Rate (U2OS; 6 h, replicate number 2): 0.82
- Growth Rate (U2OS; 12 h, replicate number 1): 0.76
- Growth Rate (U2OS; 12 h, replicate number 2): 0.96
- Growth Rate (U2OS; 18 h, replicate number 1): 0.88
- Growth Rate (U2OS; 24 h, replicate number 1): 0.86

SMILES: C[C@]12CC[C@H](O)CC1=CC[C@@H]1[C@@H]2CC[C@]2(C)C(n3cnc4ccccc43)=CC[C@@H]12 [GALETERONE]
- Growth Rate (Fibroblast; 0 h, replicate number 1): -0.16
- Growth Rate (Fibroblast; 0 h, replicate number 2): 0.96
- Growth Rate (Fibroblast; 6 h, replicate number 1): 0.94
- Growth Rate (Fibroblast; 6 h, replicate number 2): -0.64
- Growth Rate (Fibroblast; 18 h, replicate number 1): 0.61
- Growth Rate (Fibroblast; 24 h, replicate number 1): 0.01
- Growth Rate (U2OS; 0 h, replicate number 1): -0.4

SMILES: c1ccc(Cn2c(N3CCNCC3)nc3ccccc32)cc1 [LERISETRON]
- Growth Rate (Fibroblast; 0 h, replicate number 1): -0.1
- Growth Rate (Fibroblast; 6 h, replicate number 2): -0.44
- Growth Rate (Fibroblast; 12 h, replicate number 2): 0.34
- Growth Rate (Fibroblast; 18 h, replicate number 2): 0.56
- Growth Rate (Fibroblast; 24 h, replicate number 2): 0.68
- Growth Rate (U2OS; 6 h, replicate number 1): 0.7
- Growth Rate (U2OS; 6 h, replicate number 2): 0.64
- Growth Rate (U2OS; 18 h, replicate number 2): 0.94
- Growth Rate (U2OS; 24 h, replicate number 2): 0.99

Reference: ChEMBL document CHEMBL5303304, “EUbOPEN Chemogenomics Library - IncuCyte” (2023)
